We go through one compound from publication PMC9095528, “Spectrofluorimetric Approach for Quantification of Cyclizine in the Presence of its Toxic Impurities in Human Plasma; in silico Study and ADMET Calculations” (Journal of Fluorescence, 2022).

Data set [1] can be described thus: Pharmacokinetics of CYZ in human plasma after I.V administration (non-compartmental analysis). It counts as in vivo. How it is done:
One mL of CYZ was intravenously injected into three human volunteers in good health and Using a calibrated heparinized tube, a 5 mL sample of human blood was drawn from each volunteer after 0.5, 1, 2, 4, 8 hrs. All the collected samples were centrifuged for 20 min at 4000 rpm. 1 mL of each sample was quantitatively poured into a centrifuge tube, and 1 mL acetonitrile was applied to precipitate plasma proteins, until centrifugation at 4000 rpm for 20 minutes. The clear plasma supernatant was transferred to Eppendorf tubes and held at […] until the rest of the procedure was completed.
Non-compartmental analysis (NCA) was used to measure pharmacokinetic parameters such as half-life, C max, T max, elimination rate constant, clearance, apparent volume of distribution, and area under the curve using Thermo Kinetica software (version 5.0) and PK solver software after taking human plasma samples from previously injected volunteers. In deciding the proper usage of the drug and in forecasting the impact of pharmacokinetic drug interactions, the results of pharmacokinetic research have been helpful.

A short description of data set [2]: Stability of CYZ in plasma (short-term room temperature and freeze-thaw). Format: in vitro ADME, human. The following applies: rat plasma. As for the experimental part:
To cover the anticipated sample treatment and storage environments during the processing of samples, the stability of CYZ in human plasma was investigated as short‐term stability at room temperature and freeze–thaw stability. In all stability tests, three replicates of three concentrations at low, medium, and high levels were treated and compared to recently prepared QC samples.

Where [3] appears, read: intravenous, I.V administration of Emetrex 50 mg.

Structures are written as SMILES.

Turning to `CN1CCN(C(c2ccccc2)c2ccccc2)CC1` [CYZ, 1-benzhydryl-4-methylpiperazine], in data set [1] (I.V administration of Emetrex 50 mg), the “Elimination rate constant (K)” value is listed as 0.274 ± 0.10. Moreover, in data set [1] (intravenous, 50 mg, after I.V injection), the Tmax was determined as 2 h. In data set [1] (setting [3]), the AUC(0-inf) came out at 213 ± 7.21 µg·h/mL, the exposure AUC(0-t) was 22.3 ± 1.22 µg·h/mL, the Cmax was 0.0728 ± 0.00156 µg/mL and the half-life was 2.53 ± 0.43 h. Besides, in data set [1] (intravenous, I.V administration of Emetrex 50 mg, read-out: Volume of distribution (Vd)), the Vd worked out at 0.695 ± 0.23 L. The fraction remaining at 6 h, 30 ng/mL in data set [2] (30 ng/mL, room temperature for 6 h) was 97 ± 1.13%. Moreover, in data set [2] (30 ng/mL, three freeze thaw cycle), the amount remaining at 30 ng/mL stood at 97.1 ± 1.32%. In data set [2] (400 ng/mL, room temperature for 6 h), this compound gave a fraction remaining at 6 h, 400 ng/mL of 98.03 ± 0.98%. Further, the amount remaining at 400 ng/mL in data set [2] (400 ng/mL, three freeze thaw cycle) turned out to be 96.5 ± 0.97%. Also, the fraction remaining at 6 h, 800 ng/mL in data set [2] (800 ng/mL, room temperature for 6 h) was found to be 96.1 ± 1.88%. In data set [2] (800 ng/mL, three freeze thaw cycle), this compound returned a fraction remaining at 800 ng/mL of 97.2 ± 1.76%.
